Laboratory results: paper PMC9784055, “Meroterpenoids and Steroids from the Marine-Derived Fungus Trametes sp. ZYX-Z-16” (Molecules, 2022)
Values after ≈ are worked out from the molar mass of the structure shown.

Assays:
Test in all cases: microbe, parasite or virus in culture
Staphylococcus aureus = tested on: T1, Staphylococcus aureus; set-up: antibacterial 96-well microtiter plate assay, visible growth, 37 °C; settings: 12 h
T1 construct: ATCC 6538
From the text: (§1) Four bacteria (Staphylococcus aureus ATCC6538, Bacillus subtilis ATCC 6633, Escherichia coli ATCC 25922, and Listeria monocytogenes ATCC 1911) were used for antibacterial evaluation for all compounds, referring to the previous method with ampicillin as a positive control. […] Five phytopathogens (Fusarium oxysporum f. sp. cubense, Fusarium spp., Peronophythora litchii, Colletotrichum gloeosporioides, and Hylocereus undatus) were used for antifungal evaluation for all compounds, referring to the previous broth microdilution method with carbendazim as a positive control. […] Each test was performed in triplicate. The inhibitory activity of all compounds against four bacteria (Staphylococcus aureus ATCC6538, Bacillus subtilis ATCC 6633, Escherichia coli ATCC 25922, and Listeria monocytogenes ATCC 1911) was evaluated using the 96-well microtiter plates method.

Listeria monocytogenes = tested on: T2, Listeria monocytogenes; set-up: antibacterial 96-well microtiter plate assay, visible growth, 37 °C; settings: 12 h
T2 construct: ATCC 1911
From the text: as §1

Bacillus subtilis = tested on: T3, Bacillus subtilis; set-up: antibacterial 96-well microtiter plate assay, visible growth, 37 °C; settings: 12 h
T3 construct: ATCC 6633
From the text: as §1

Escherichia coli = tested on: T4, Escherichia coli; set-up: antibacterial 96-well microtiter plate assay, visible growth, 37 °C; settings: 12 h
T4 construct: ATCC 25922
From the text: as §1

Fusarium spp. = settings: 48 h, read-out: Fusarium spp. MIC
Description: (§2) Four bacteria (Staphylococcus aureus ATCC6538, Bacillus subtilis ATCC 6633, Escherichia coli ATCC 25922, and Listeria monocytogenes ATCC 1911) were used for antibacterial evaluation for all compounds, referring to the previous method with ampicillin as a positive control. The bacteria inhibitory activity of all compounds was observed after 12 h in a constant temperature incubator at 37 °C. Five phytopathogens (Fusarium oxysporum f. sp. cubense, Fusarium spp., Peronophythora litchii, Colletotrichum gloeosporioides, and Hylocereus undatus) were used for antifungal evaluation for all compounds, referring to the previous broth microdilution method with carbendazim as a positive control. The fungal inhibitory activity of all compounds was observed after 48 h in a constant temperature incubator at 28 °C. […] Each test was performed in triplicate.

[1] = tested on: Colletotrichum gloeosporioides; set-up: antifungal broth microdilution, visible growth, 28 °C; settings: 48 h
Description: as §2, with “triplicate. The inhibitory activities of all compounds against five phytopathogenic fungi (Fusarium oxysporum f. sp. cubense, Fusarium spp., Peronophythora litchii, Colletotrichum gloeosporioides, and Hylocereus undatus) were evaluated using the broth microdilution method.” for “triplicate.”

Peronophythora litchii = tested on: Peronophythora litchii; set-up: antifungal broth microdilution, visible growth, 28 °C; settings: Phytophthora litchii, 48 h
Description: as §2, with “triplicate. The inhibitory activities of all compounds against five phytopathogenic fungi (Fusarium oxysporum f. sp. cubense, Fusarium spp., Peronophythora litchii, Colletotrichum gloeosporioides, and Hylocereus undatus) were evaluated using the broth microdilution method.” for “triplicate.”

[2] = tested on: Fusarium oxysporum f. sp. cubense; set-up: antifungal broth microdilution, visible growth, 28 °C; settings: 48 h
Description: as §2, with “triplicate. The inhibitory activities of all compounds against five phytopathogenic fungi (Fusarium oxysporum f. sp. cubense, Fusarium spp., Peronophythora litchii, Colletotrichum gloeosporioides, and Hylocereus undatus) were evaluated using the broth microdilution method.” for “triplicate.”

Structure (SMILES)	MIC (Staphylococcus aureus) [µg/mL]	MIC (Listeria monocytogenes) [µg/mL]	MIC (Bacillus subtilis) [µg/mL]	MIC (Escherichia coli) [µg/mL]	MIC (Fusarium spp.) [µg/mL]	MIC [1] [µg/mL]	MIC (Peronophythora litchii) [µg/mL]	MIC [2] [µg/mL]
CC1(C)S[C@@H]2[C@H](NC(=O)[C@H](N)c3ccccc3)C(=O)N2[C@H]1C(=O)O [Ampicillin]	< 1	< 1	< 1	< 1				
COC(=O)Nc1nc2ccccc2[nH]1 [Carbendazim]					< 1	< 1	< 1	< 1
COC(=O)C1C(=O)C(C)=C2OC3(CC2(C)C1C)C(C)C(O)CC1C(C)(C)OC(=O)CCC13C (centres unmarked) [compound 1, asnovolin H]	> 128	> 128	> 128	> 128	> 128	> 128	> 128	> 128
CC1=C2O[C@@]3(C[C@]2(C)C(C)=C(C(=O)O)C1=O)[C@@H](C)CC[C@H]1C(C)(C)OC(=O)CC[C@@]13C [compound 2, asnovolin I]	> 128	> 128	> 128	> 128	> 128	> 128	> 128	> 128
COC(=O)C1=C(C)C2(C)CC3(OC2=C(C)C1=O)C(C)CCC1C(C)(C)OC(=O)CCC13C (centres unmarked) [compound 3, asnovolin C 5′6′-dehydro hydrogen]	> 128	> 128	> 128	> 128	> 128	> 128	> 128	> 128
COC(=O)CC[C@@]1(C)[C@H](C(C)(C)O)CC[C@H](C)[C@@]12C[C@@]1(C)C(=C(C)C(=O)[C@@H](C(=O)OC)[C@@H]1C)O2 [compound 4, asnovolin C]	> 128	> 128	> 128	> 128	> 128	> 128	> 128	> 128
CC1=CC(=O)C(C)=C2O[C@@]3(C[C@]12C)[C@@H](C)CC[C@H]1C(C)(C)[C@@H](O)CC[C@@]13C [compound 5, chermesin A]	128 (≈ 344 µM)	> 128	> 128	> 128	> 128	> 128	> 128	> 128
C[C@@H]1Cc2c3c(cc(O)c2C(=O)O1)O[C@@]1(C)[C@@H](O)C[C@H]2C(C)(C)C(=O)C=C[C@]2(C)[C@@H]1C3 [compound 6, chrodrimanin E]	> 128	> 128	> 128	> 128	> 128	> 128	> 128	> 128
